In BindingDB's records for doi:10.1111/j.1476-5381.1988.tb11723.x (Ciba-Geigy, 1988):
Where “and” joins values, the source holds several entries; their conditions need not be identical. Equal entries are not always repeated.

Biological target: Glutamate receptor ionotropic, NMDA 1 (Rattus norvegicus, UniProt P35439)

For N[C@H](CC(=O)O)C(=O)O, the Ki was 0.8 µM and 0.9 µM.

Work on N[C@@H](Cn1oc(=O)[nH]c1=O)C(=O)O [2-amino-3-(3,5-dioxo[1,2,4]oxadiazolidin-2-yl)propionic acid] yielded a Ki of over 10 µM.

CCOC(=O)CC[C@H](N)C(=O)OCC [glutamic acid diethyl ester] showed a Ki of over 10 µM.

N[C@@H](CC(=O)O)C(=O)O [L-Aspartic acid, 2] was tested, and the Ki was 1.4 µM and 1.6 µM.

O=C(O)c1cccc(C(=O)O)n1 [Dipicolinate] was tested, and the Ki was over 10 µM.

O=C(O)c1cccnc1C(=O)O [pyridine-2,3-dicarboxylic acid] was tested, and the Ki was over 10 µM.

In the case of O=C(O)[C@H]1CN(CCCP(=O)(O)O)CCN1 [CPP], the Ki is reported as 0.22 µM and 0.15 µM.

For CN[C@H](CC(=O)O)C(=O)O [NMDA], the Ki was 4.1 µM and 5.6 µM.

For O=C(O)[C@@H]1C[C@H](CP(=O)(O)O)CCN1 [Selfotel], the Ki was 0.14 µM.

N[C@H](CCCP(=O)(O)O)C(=O)O [CB3371309] was tested, and the Ki was 0.35 µM and 0.4 µM.

For NC(CCCCCP(=O)(O)O)C(=O)O (stereo not drawn) [DL-AP7], the Ki was 0.9 µM and 1.1 µM.
